Laboratory results reported in the OligoGym collection.
HELM strings list units from the 5' end as sugar, base in round brackets, then linkage (d deoxyribose, r ribose, m 2'-O-methyl, p phosphodiester). Strings are as the collection lists them; they lack the last nucleoside at the 3' end of the tested compound. [moe] = 2'-O-(2-methoxyethyl) (MOE); [sp] = phosphorothioate linkage; [m5C] = 5-methylcytosine

The substances below were run against SCN2A (assay: mouse, dose not given). Details: ASO.

Substance | 3 h FOB score [score 0-7]
RNA1{[moe]([m5C])[sp].[moe]([m5C])p.[moe](A)p.[moe]([m5C])p.[moe](G)p.d(A)[sp].d([m5C])[sp].d(A)[sp].d(T)[sp].d(A)[sp].d(T)[sp].d(T)[sp].d(T)[sp].d(T)[sp].d(T)[sp].[moe]([m5C])p.[moe](T)p.[moe](A)[sp].[moe]([m5C])}$$$$ (last 3' nucleoside missing) | 0
RNA1{[moe](A)[sp].[moe](T)p.[moe](A)p.[moe](T)p.[moe](T)p.[moe](T)p.d(T)[sp].d(T)[sp].d([m5C])[sp].d(T)[sp].d(A)[sp].d([m5C])[sp].d(A)[sp].d([m5C])[sp].d(T)[sp].d(G)[sp].[moe]([m5C])p.[moe](T)[sp].[moe](G)}$$$$ (last 3' nucleoside missing) | 2
RNA1{[moe](G)[sp].[moe]([m5C])p.[moe](A)p.[moe](T)p.[moe](G)[sp].d(T)[sp].d(A)[sp].d(A)[sp].d([m5C])[sp].d([m5C])[sp].d(T)[sp].d(T)[sp].d(T)[sp].[moe](A)p.[moe](T)p.[moe](A)[sp].[moe]([m5C])}$$$$ (last 3' nucleoside missing) | 0
RNA1{[moe](G)[sp].[moe](G)p.[moe](G)p.[moe](A)p.[moe](T)p.d(A)[sp].d(G)[sp].d(T)[sp].d(G)[sp].d([m5C])[sp].d(T)[sp].d([m5C])[sp].d([m5C])[sp].d(A)[sp].d(T)[sp].[moe](A)p.[moe](G)p.[moe]([m5C])[sp].[moe]([m5C])}$$$$ (last 3' nucleoside missing) | 1.33
RNA1{[moe](G)[sp].[moe]([m5C])p.[moe](A)p.[moe](T)[sp].d(G)[sp].d(T)[sp].d(A)[sp].d(A)[sp].d([m5C])[sp].d([m5C])[sp].d(T)[sp].d(T)[sp].[moe](T)p.[moe](A)p.[moe](T)p.[moe](A)[sp].[moe]([m5C])}$$$$ (last 3' nucleoside missing) | 0
RNA1{[moe](T)[sp].[moe]([m5C])p.[moe](A)p.[moe](G)p.d([m5C])[sp].d(A)[sp].d(T)[sp].d(G)[sp].d(T)[sp].d(T)[sp].d(T)[sp].d(A)[sp].d(T)[sp].d([m5C])[sp].[moe](T)p.[moe](T)p.[moe](A)p.[moe](G)[sp].[moe](T)}$$$$ (last 3' nucleoside missing) | 2.33
RNA1{[moe](A)[sp].[moe]([m5C])p.[moe](G)p.[moe](A)p.[moe]([m5C])p.d(A)[sp].d(T)[sp].d(A)[sp].d(T)[sp].d(T)[sp].d(T)[sp].d(T)[sp].d(T)[sp].d([m5C])[sp].d(T)[sp].[moe](A)p.[moe]([m5C])p.[moe](A)[sp].[moe]([m5C])}$$$$ (last 3' nucleoside missing) | 0
RNA1{[moe]([m5C])[sp].[moe](A)p.[moe]([m5C])p.[moe](G)p.d(A)[sp].d([m5C])[sp].d(A)[sp].d(T)[sp].d(A)[sp].d(T)[sp].d(T)[sp].d(T)[sp].d(T)[sp].d(T)[sp].[moe]([m5C])p.[moe](T)p.[moe](A)p.[moe]([m5C])[sp].[moe](A)}$$$$ (last 3' nucleoside missing) | 0
RNA1{[moe](T)[sp].[moe](T)p.[moe]([m5C])p.[moe](T)p.[moe](A)p.[moe](T)p.d(T)[sp].d(T)[sp].d(T)[sp].d(A)[sp].d(T)[sp].d(A)[sp].d(A)[sp].d(A)[sp].d(T)[sp].d(G)[sp].[moe]([m5C])p.[moe]([m5C])[sp].[moe](G)}$$$$ (last 3' nucleoside missing) | 3
RNA1{[moe]([m5C])[sp].[moe](G)p.[moe](T)p.[moe]([m5C])p.[moe](T)p.d([m5C])[sp].d(T)[sp].d(T)[sp].d(T)[sp].d([m5C])[sp].d(T)[sp].d(T)[sp].d(A)[sp].d(T)[sp].d(T)[sp].[moe](T)p.[moe]([m5C])p.[moe](T)[sp].[moe](G)}$$$$ (last 3' nucleoside missing) | 1
